Laboratory results taken from patent US20240076299A1, “TUBERCULATIN ANALOGS AS ANTIVIRAL AGENTS” (priority 2020, published 2024).
Where two headings read alike, the source gives them in different places.

Columns and labels:
SARS-CoV-2 [1] = experiment: microbe, parasite or virus in culture; conditions: for inhibition at 2 µM: Severe acute respiratory syndrome coronavirus 2, 48 h
VSV = experiment: microbe, parasite or virus in culture; assay type: cell-based; conditions: Vesicular stomatitis virus, read-out: EC50 (nM) VSV
HIV = experiment: microbe, parasite or virus in culture; assay type: cell-based, HIV-1
in vitro = conditions: human
AIV = experiment: microbe, parasite or virus in culture; assay type: cell-based, avian influenza virus (H5N1); conditions: Influenza A virus, read-out: EC50 (nM) AIV
[2] = Cytotoxicity evaluation using the SRB assay; conditions: human, triplicate
SARS-CoV-2 [3] = tested on: SARS-CoV-2
A549 cells = conditions: human, 2 days
[4] = read-out: EC50 (2000 nM) SARS-COV-2
[5] = read-out: EC50 (2000 nM) SARS-COV-2, % inhibitory effect at 2000 nM against SARS-CoV-2, triplicate
[6] = CC50 (nM) A549, Table 2, host A549 cells
[7] = CC50 (nM), Table 1, inhibition of cell growth of host A549 cells by 50%
[8] = A549 cells, CC50 (nM), Table 1, inhibition of cell growth of host A549 cells by 50%
[9] = A549 cells, CC50 (nM) A549, Table 2, host A549 cells

Structure (SMILES) | EC50 (VSV) | EC50 (HIV; Human immunodeficiency virus 1) | EC50 (AIV) | inhibition at 2 µM (SARS-CoV-2 [1]; [5]) | CC50 at 2 days [2, 7] | other results
COc1cc2c(O)c3c(c(-c4ccc5c(c4)OCO5)c2cc1OC)C(=O)OC3 [Diphyllin (7), diphyllin, reference compound] | 11.2 nM | 170 nM | 2.36 nM |  |  | inhibition at 2 µM (SARS-CoV-2 [1]; [4]): 94.6%; CC50 at 2 days (in vitro; CC50 (nM)): 2460 nM; CC50 at 2 days (in vitro; CC50 (nM) A549): 1980 nM
COc1cc2c(O[C@H]3OC[C@@]4(COC(C)=O)OC(c5ccccc5)O[C@@H]34)c3c(c(-c4ccc5c(c4)OCO5)c2cc1OC)C(=O)OC3 (stereo partly drawn) [Compound 21] | 12 nM | 126 nM | 6.25 nM | 96.3% | 328 nM | CC50 at 2 days [2, 6]: 93 nM
COc1cc2c(O[C@@H]3OC[C@@]4(CO)OC(C)(C)O[C@@H]34)c3c(c(-c4ccc5c(c4)OCO5)c2cc1OC)C(=O)OC3 [Compound 9] |  | 34.6 nM |  | > 80% | 1180 nM | activity against SARS-CoV-2 (conclusion) (SARS-CoV-2 [3]): active molecules
COc1cc2c(O[C@H]3OC[C@@]4(CO)OC(c5ccccc5)O[C@@H]34)c3c(c(-c4cc5c(cc4OCc4ccccc4)OCO5)c2cc1OC)C(=O)OC3 (stereo partly drawn) [Compound 44] |  | > 25000 nM |  |  |  | CC50 at 2 days [2, 8]: > 25000 nM
COc1cc2c(OC3OCC(O)(CO)C3OC3OCC(O)C(O)C3O)c3c(c(-c4cc5c(cc4O)OCO5)c2cc1OC)C(=O)OC3 (single isomer, unassigned) [Compound 49] |  |  |  |  |  | EC50 (HIV): 5450 nM; antiviral activity of R atropisomer versus corresponding S atropisomer (HIV): much more potent antiviral activities; CC50 at 2 days (in vitro; CC50 (nM)): 23500 nM
COc1cc2c(O[C@H]3OC[C@](O)(CO)[C@H]3O)c3c(c(-c4ccc5c(c4)OCO5)c2cc1OC)C(=O)OC3 [Compound 19] | 144 nM | 11.9 nM | 70 nM | 98.3% | 368 nM | CC50 at 2 days [2, 6]: 2100 nM
COc1cc2c(O[C@H]3OC[C@@]4(CN(C)C)OC(C)(C)O[C@@H]34)c3c(c(-c4ccc5c(c4)OCO5)c2cc1OC)C(=O)OC3 [Compound 31] |  | 177 nM |  | 91.9% | 1400 nM | 
COc1cc2c(OC3OCC(O)(CO)C3O)c3c(c(-c4cc5c(cc4O)OCO5)c2cc1OC)C(=O)OC3 (single isomer, unassigned) [Compound 45] |  |  |  |  |  | EC50 (HIV): 2730 nM; antiviral activity of R atropisomer versus corresponding S atropisomer (HIV): much more potent antiviral activities; CC50 at 2 days (in vitro; CC50 (nM)): 46800 nM
COc1cc2c(O[C@@H]3OC[C@@]4(COC(C)=O)OC(c5ccccc5)O[C@@H]34)c3c(c(-c4ccc5c(c4)OCO5)c2cc1OC)C(=O)OC3 (stereo partly drawn) [Compound 20] | 53.8 nM | 280 nM | 39.9 nM | > 80% | 2580 nM | CC50 at 2 days [2, 6]: 1570 nM; activity against SARS-CoV-2 (conclusion) (SARS-CoV-2 [3]): active molecules
COc1cc2c(O[C@H]3OC[C@@]4(COC(=O)c5cccnc5)OC(C)(C)O[C@@H]34)c3c(c(-c4ccc5c(c4)OCO5)c2cc1OC)C(=O)OC3 [Compound 29] | 19.9 nM | 91.8 nM | 8.66 nM | 95.6% |  | CC50 at 2 days [2, 9]: 483 nM; CC50 at 2 days [2, 8]: 381 nM
Cc1ccnc2c1NC(=O)c1cccnc1N2C1CC1 [Nevirapine, reference compound] |  | 35.8 nM |  |  | > 200 nM | 
COc1cc2c(O[C@H]3OC[C@@]4(COC(C)=O)OC(C)(C)O[C@@H]34)c3c(c(-c4ccc5c(c4)OCO5)c2cc1OC)C(=O)OC3 [Compound 12] |  | 26.9 nM |  | 96.3% | 472 nM | activity against SARS-CoV-2 (conclusion) (SARS-CoV-2 [3]): active molecules
COc1cc2c(O[C@@H]3OC[C@@]4(CO)OC(c5ccccc5)O[C@@H]34)c3c(c(-c4cc5c(cc4OCc4ccccc4)OCO5)c2cc1OC)C(=O)OC3 (stereo partly drawn) [Compound 43] |  | > 25000 nM |  |  |  | CC50 at 2 days [2, 8]: > 25000 nM
COc1cc2c(OC3OCC(O)(COC4OCC(O)C(O)C4O)C3OC3OCC(O)C(O)C3O)c3c(c(-c4cc5c(cc4O)OCO5)c2cc1OC)C(=O)OC3 (single isomer, unassigned) [Compound 51] |  | 15700 nM |  |  | > 25000 nM | antiviral activity of R atropisomer versus corresponding S atropisomer (HIV): much more potent antiviral activities
COc1cc2c(OC3OCC(O)(CO)C3O)c3c(c(-c4cc5c(cc4O)OCO5)c2cc1OC)C(=O)OC3 (single isomer, unassigned) [Compound 46] |  |  |  |  |  | CC50 (A549 cells): > 50000 nM; EC50 (HIV): 48600 nM
COc1cc2c(OC3OCC(O)(CO)C3O)c3c(c(-c4cc5c(cc4O)OCO5)c2cc1OC)C(=O)OC3 (single isomer, unassigned) [Compound 47] |  |  |  |  |  | CC50 (A549 cells): > 25000 nM; EC50 (HIV): > 25000 nM

Structure (SMILES) | EC50 (VSV) | EC50 (HIV; Human immunodeficiency virus 1) | EC50 (AIV) | inhibition at 2 µM (SARS-CoV-2 [1]; [5]) | CC50 at 2 days [2, 7] | other results
COc1cc2c(O[C@H]3OC[C@@]4(CO)OC(c5ccccc5)O[C@@H]34)c3c(c(-c4ccc5c(c4)OCO5)c2cc1OC)C(=O)OC3 (stereo partly drawn) [Compound 18] | 2.43 nM | 7.37 nM | 0.71 nM | 98.3% |  | CC50 at 2 days [2, 9]: 208 nM; CC50 at 2 days [2, 8]: 184 nM
COc1cc2c(O[C@H]3OC[C@@]4(CN=[N+]=[N-])OC(C)(C)O[C@@H]34)c3c(c(-c4ccc5c(c4)OCO5)c2cc1OC)C(=O)OC3 [Compound 25] | 4.52 nM | 441 nM | 0.72 nM | > 80% |  | CC50 at 2 days [2, 9]: 648 nM; CC50 at 2 days [2, 8]: 1650 nM; activity against SARS-CoV-2 (conclusion) (SARS-CoV-2 [3]): active molecules
COc1cc2c(O[C@@H]3OC[C@@]4(CO)OC(c5ccccc5)O[C@@H]34)c3c(c(-c4ccc5c(c4)OCO5)c2cc1OC)C(=O)OC3 (stereo partly drawn) [Compound 17] |  | 251 nM |  | 66.2% |  | CC50 at 2 days [2, 8]: 2240 nM
COc1cc2c(O[C@H]3OC[C@@]4(COC(=O)c5ccncc5)OC(C)(C)O[C@@H]34)c3c(c(-c4ccc5c(c4)OCO5)c2cc1OC)C(=O)OC3 [Compound 28] | 56.1 nM | 486 nM | 16.7 nM |  |  | inhibition at 2 µM (SARS-CoV-2 [1]; [4]): 93%; CC50 at 2 days (in vitro; CC50 (nM)): 2210 nM; CC50 at 2 days (in vitro; CC50 (nM) A549): 560 nM
COc1cc2c(O[C@H]3OC[C@@]4(CO)OC(C)(C)O[C@@H]34)c3c(c(-c4ccc5c(c4)OCO5)c2cc1OC)C(=O)OC3 [Compound 10] | 1.5 nM | 0.97 nM | 0.75 nM | 95.6% | 188 nM | CC50 at 2 days [2, 6]: 400 nM
COc1cc2c(O[C@H]3OC[C@@]4(CN)OC(C)(C)O[C@@H]34)c3c(c(-c4ccc5c(c4)OCO5)c2cc1OC)C(=O)OC3 [Compound 26] | 0.58 nM | 917 nM | 0.79 nM | > 80% | 4550 nM | CC50 at 2 days [2, 6]: 2.66 nM; activity against SARS-CoV-2 (conclusion) (SARS-CoV-2 [3]): active molecules
COc1cc2c(OC3OCC(O)(COC4OCC(O)C(O)C4O)C3OC3OCC(O)C(OC4OCC(O)(CO)C4O)C3O)c3c(c(-c4cc5c(cc4O)OCO5)c2cc1OC)C(=O)OC3 (single isomer, unassigned) [Compound 53] |  | 14700 nM |  |  |  | antiviral activity of R atropisomer versus corresponding S atropisomer (HIV): much more potent antiviral activities; CC50 at 2 days (in vitro; CC50 (nM)): > 25000 nM
COc1cc2c(O[C@H]3OC[C@](O)(COC(C)=O)[C@H]3O)c3c(c(-c4ccc5c(c4)OCO5)c2cc1OC)C(=O)OC3 [Compound 23] | 1.24 nM | 43.4 nM | 0.3 nM | 96.7% | 736 nM | CC50 at 2 days [2, 6]: 158 nM
COc1cc2c(O[C@H]3OC[C@@]4(CNC(C)=O)OC(C)(C)O[C@@H]34)c3c(c(-c4ccc5c(c4)OCO5)c2cc1OC)C(=O)OC3 [Compound 32] |  | 80.9 nM |  |  |  | inhibition at 2 µM (SARS-CoV-2 [1]; [4]): 97.4%; activity against SARS-CoV-2 (conclusion) (SARS-CoV-2 [3]): active molecules; CC50 at 2 days (in vitro; CC50 (nM)): 441 nM
COc1cc2c(OC3OC[C@@]4(CO[Si](c5ccccc5)(c5ccccc5)C(C)(C)C)OC(c5ccccc5)O[C@@H]34)c3c(c(-c4ccc5c(c4)OCO5)c2cc1OC)C(=O)OC3 (stereo partly drawn) [Compound 16] |  | 6580 nM |  | 32.4% |  | CC50 at 2 days [2, 8]: > 20000 nM
COc1cc2c(O[C@H]3OC[C@@]4(CN5CCOCC5)OC(C)(C)O[C@@H]34)c3c(c(-c4ccc5c(c4)OCO5)c2cc1OC)C(=O)OC3 [Compound 30] |  | 18 nM |  |  |  | inhibition at 2 µM (SARS-CoV-2 [1]; [4]): 92.7%; CC50 at 2 days (in vitro; CC50 (nM)): 1190 nM
COc1cc2c(O[C@@H]3OC[C@@]4(COC(C)=O)OC(C)(C)O[C@@H]34)c3c(c(-c4ccc5c(c4)OCO5)c2cc1OC)C(=O)OC3 [Compound 11] |  | 208 nM |  | > 80% | 1260 nM | activity against SARS-CoV-2 (conclusion) (SARS-CoV-2 [3]): active molecules
COc1cc2c(OC3OC[C@@]4(CO[Si](c5ccccc5)(c5ccccc5)C(C)(C)C)OC(c5ccccc5)O[C@@H]34)c3c(c(-c4cc5c(cc4OCc4ccccc4)OCO5)c2cc1OC)C(=O)OC3 (stereo partly drawn) [Compound 42] |  | > 25000 nM |  |  |  | CC50 at 2 days [2, 8]: > 25000 nM
CCOC(=O)c1c(CSc2ccccc2)n(C)c2cc(Br)c(O)c(CN(C)C)c12 [arbidol, reference compound] |  |  |  |  |  | IC50 (SARS-CoV-2 [1]; Severe acute respiratory syndrome coronavirus 2, HepG2, read-out: IC50 against SARS-CoV-2 pseudovirion): 5230 nM
COc1cc2c(O[C@H]3OC[C@@]4(COC(=O)c5ccccc5)OC(C)(C)O[C@@H]34)c3c(c(-c4ccc5c(c4)OCO5)c2cc1OC)C(=O)OC3 [Compound 27] | 20.8 nM | 384 nM | 16.9 nM |  |  | inhibition at 2 µM (SARS-CoV-2 [1]; [4]): 93%; activity against SARS-CoV-2 (conclusion) (SARS-CoV-2 [3]): active molecules; CC50 at 2 days (in vitro; CC50 (nM)): 2220 nM; CC50 at 2 days (in vitro; CC50 (nM) A549): 379 nM
